What is called IC50 is the concentration needed to halve the response being measured. As usually defined, the Papp is a coefficient for how fast a substance crosses the barrier. A higher Papp goes with fast passage. One may read the EC50 as the concentration giving half of the maximal effect. A high value points to weaker potency.

SMILES strings stand for the structures.

In patent publication US10618903B2, “Heteroaryl substituted aminopyridine compounds” (BRISTOL-MYERS SQUIBB COMPANY, priority 2015, dated 2020) one finds IC50, Papp and EC50 data, which are given here for 22 molecules.

For one series, the target named is IRAK4 (Homo sapiens (Human), UniProt Q9NWZ3). As to the kind of experiment: IRAK4 Inhibition Assay. Format: biochemical. Conditions: ATP 500 μM; IRAK4 0.6 nM. A digest of the protocol: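 Mobility-shift readout: phosphorylated and unphosphorylated fluorescent peptide (1.5 μM) resolved by electrophoresis after a 60 min room-temperature reaction stopped with EDTA. Reaction holds 0.6 nM IRAK4, 500 μM ATP and 1.6% DMSO in HEPES pH 7.2/MgCl2/Brij 35/DTT buffer; percent inhibition set against vehicle and no-enzyme controls.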
Chain of IRAK4 (Q9NWZ3 whole entry): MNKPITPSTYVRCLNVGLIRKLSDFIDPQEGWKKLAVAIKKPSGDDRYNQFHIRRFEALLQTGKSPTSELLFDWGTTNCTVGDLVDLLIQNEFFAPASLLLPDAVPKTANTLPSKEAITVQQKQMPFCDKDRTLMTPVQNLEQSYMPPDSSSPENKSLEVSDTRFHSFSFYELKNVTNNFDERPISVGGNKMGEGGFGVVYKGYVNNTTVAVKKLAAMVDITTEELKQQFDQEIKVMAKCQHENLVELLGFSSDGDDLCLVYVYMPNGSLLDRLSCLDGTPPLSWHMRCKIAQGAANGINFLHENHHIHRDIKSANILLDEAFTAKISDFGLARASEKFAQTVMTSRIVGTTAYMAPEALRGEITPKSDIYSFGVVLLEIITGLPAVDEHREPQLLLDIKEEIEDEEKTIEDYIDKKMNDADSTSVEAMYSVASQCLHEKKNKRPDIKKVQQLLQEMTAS

A further series can be described thus: Caco Permeability Assay. The class given is in vitro ADME. Conditions: human, Caco-2, Caco-2 cells, 3 μM compound. On the technique in general: Caco-2 cells form a polarised layer with tight junctions and transporters.
In series [1] the test system is IL-6 levels in human whole blood stimulated with a TLR2 agonist. As to the kind of experiment: IRAK4 Whole Blood Assay (lipoteichoic acid/TLR2-stimulated IL-6). The class given is cell-based. As to conditions: lipoteichoic acid 10 μg/mL, IL-6 readout. In outline:
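ACD-A-anticoagulated human whole blood was preincubated with compounds for 60 min at 37 °C under 5% CO2. It was then stimulated with 10 μg/mL lipoteichoic acid (final) in RPMI for 5 h. IL-6 in plasma supernatants was measured by flow cytometry bead assay.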

For the molecule `CC(F)(F)Cn1cc(Nc2cc(-c3cnn4cc(Cl)cnc34)ncc2C(=O)NC[C@@H](F)C(C)(C)O)cn1` [Example 239, (R)-6-(6-chloropyrazolo[1,5-a]pyrimidin-3-yl)-4-((1-(2,2-difluoropropyl)-1H-pyrazol-4-yl)amino)-N-(2-fluoro-3-hydroxy-3-methylbutyl)nicotinamide], at IRAK4, the IC50 came out at 0.001 µM. Moreover, the Papp at 2 h, 3 µM in “Caco Permeability Assay” is 14.4 ×10⁻⁶ cm/s. The molecule also displayed an EC50 in series [1] (Homo sapiens) of 0.35 µM.

For the molecule `CC(C)(O)[C@H](F)CNC(=O)c1cnc(-c2cnc3cc(Cl)cnn23)cc1NCCC(F)(F)F` [Example 190, (R)-6-(7-chloroimidazo[1,2-b]pyridazin-3-yl)-N-(2-fluoro-3-hydroxy-3-methylbutyl)-4-((3,3,3-trifluoropropyl)amino)nicotinamide], the half-inhibitory concentration (IC50) at IRAK4 is 0.006 µM. Further, the Papp at 2 h, 3 µM in “Caco Permeability Assay” amounted to 15.3 ×10⁻⁶ cm/s. This molecule displayed an EC50 in series [1] (Homo sapiens) of 0.61 µM.

With `CC(C)(O)[C@H]1CC[C@H](Nc2cc(-c3cnn4cc(Cl)cnc34)ncc2C(=O)NC[C@@H](F)C(C)(C)O)C1` [Example 50, 6-(6-chloropyrazolo[1,5-a]pyrimidin-3-yl)-N—((R)-2-fluoro-3-hydroxy-3-methylbutyl)-4-(((1S,3S)-3-(2-hydroxypropan-2-yl)cyclopentyl)amino)nicotinamide], on IRAK4, the IC50 amounted to 0.002 µM. In the series “Caco Permeability Assay”, this molecule registered an apparent permeability (Papp) at 2 h, 3 µM of 3 ×10⁻⁶ cm/s. The same molecule returned an EC50 in series [1] (Homo sapiens) of 0.69 µM.

Take `CC(C)(O)[C@H](F)CNC(=O)c1cnc(-c2cnn3cc(Cl)cnc23)cc1NC1COCC1(F)F` (single isomer, unassigned) [Example 19]: on IRAK4, the IC50 stood at 0.003 µM. The Papp at 2 h, 3 µM in “Caco Permeability Assay” was 4.9 ×10⁻⁶ cm/s. Moreover, the EC50 in series [1] was 0.62 µM.

For the molecule `CC(C)(O)[C@H](F)CNC(=O)c1cnc(-c2cnc3cc(C#N)cnn23)cc1Nc1cnn(CC(F)F)c1` [Example 260, (R)-6-(7-cyanoimidazo[1,2-b]pyridazin-3-yl)-4-((1-(2,2-difluoroethyl)-1H-pyrazol-4-yl)amino)-N-(2-fluoro-3-hydroxy-3-methylbutyl) nicotinamide], at IRAK4, the IC50 was 0.003 µM. Moreover, the Papp at 2 h, 3 µM in “Caco Permeability Assay” is under 1.5 ×10⁻⁶ cm/s. The same molecule came in with an EC50 in series [1] (Homo sapiens) of 0.08 µM.

For the molecule `Cc1cc(Nc2cc(-c3cnn4cc(C#N)cnc34)ncc2C(=O)NC[C@@H](F)C(C)(C)O)n(C)n1` [Example 244, (R)-6-(6-cyanopyrazolo[1,5-a]pyrimidin-3-yl)-4-((1,3-dimethyl-1H-pyrazol-5-yl)amino)-N-(2-fluoro-3-hydroxy-3-methylbutyl)nicotinamide], on IRAK4, the IC50 turned out to be 0.008 µM. Also, the Papp at 2 h, 3 µM in the series “Caco Permeability Assay” was under 1.5 ×10⁻⁶ cm/s. Besides, the midpoint of the response in series [1] (Homo sapiens), the EC50, lay at 0.38 µM.

Regarding `CC(C)(O)[C@H](F)CNC(=O)c1cnc(-c2cnc3cc(C#N)cnn23)cc1NC1CCC1` [Example 183, (R)-6-(7-cyanoimidazo[1,2-b]pyridazin-3-yl)-4-(cyclobutylamino)-N-(2-fluoro-3-hydroxy-3-methylbutyl)nicotinamide], the IC50 on IRAK4 was determined as 0.002 µM. Besides, in “Caco Permeability Assay”, the Papp at 2 h, 3 µM amounted to 8.9 ×10⁻⁶ cm/s. The molecule further came in with a 50% effective concentration (EC50) in series [1] (Homo sapiens) of 0.75 µM.

As to `CC(C)(O)[C@H](F)CNC(=O)c1cnc(-c2cnn3cc(Cl)cnc23)cc1Nc1cnn(C2CC2)c1` [Example 246, (R)-6-(6-chloropyrazolo[1,5-a]pyrimidin-3-yl)-4-((1-cyclopropyl-1H-pyrazol-4-yl)amino)-N-(2-fluoro-3-hydroxy-3-methylbutyl)nicotinamide], the IC50 on IRAK4 was 0.001 µM. This molecule also came in with a Papp at 2 h, 3 µM in the series “Caco Permeability Assay” of 4.7 ×10⁻⁶ cm/s. In addition, the response in series [1] (Homo sapiens) was half-maximal at 0.13 µM (EC50).

With `CC(C)Nc1cc(-c2cnc3cc(C#N)cnn23)ncc1C(=O)NC[C@H](F)C(C)(C)O` [Example 194, (S)-6-(7-cyanoimidazo[1,2-b]pyridazin-3-yl)-N-(2-fluoro-3-hydroxy-3-methylbutyl)-4-(isopropylamino)nicotinamide], at IRAK4, the IC50 turned out to be 0.008 µM. Also, the Papp at 2 h, 3 µM in “Caco Permeability Assay” was found to be 4.2 ×10⁻⁶ cm/s. This molecule also showed an EC50 in series [1] (Homo sapiens) of 0.23 µM.

Take `CCNc1cc(-c2cnn3cc(C#N)cnc23)ncc1C(=O)NC[C@@H](F)C(C)(C)O` [Example 93, (R)-6-(6-cyanopyrazolo[1,5-a]pyrimidin-3-yl)-4-(ethylamino)-N-(2-fluoro-3-hydroxy-3-methylbutyl)nicotinamide]: on IRAK4, the IC50 worked out at 0.006 µM. Further, the Papp at 2 h, 3 µM in “Caco Permeability Assay” worked out at 7.2 ×10⁻⁶ cm/s. Further, a half-maximal effect in series [1] (Homo sapiens) (EC50) was put at 1.66 µM.

As for `CC(C)(O)[C@H](F)CNC(=O)c1cnc(-c2cnn3cc(C#N)cnc23)cc1NC1CC1` [Example 92, (R)-6-(6-cyanopyrazolo[1,5-a]pyrimidin-3-yl)-4-(cyclopropylamino)-N-(2-fluoro-3-hydroxy-3-methylbutyl) nicotinamide], the IC50 on IRAK4 came out at 0.02 µM. The molecule further gave a Papp at 2 h, 3 µM in the series “Caco Permeability Assay” of 7.4 ×10⁻⁶ cm/s. For the same molecule, a half-maximal response in series [1] (Homo sapiens) (EC50) required 0.72 µM.

Take `CC(C)(O)[C@H](F)CNC(=O)c1cnc(-c2cnn3cc(Cl)cnc23)cc1Nc1cnn(C(F)F)c1` [Example 231, (R)-6-(6-chloropyrazolo[1,5-a]pyrimidin-3-yl)-4-((1-(difluoromethyl)-1H-pyrazol-4-yl)amino)-N-(2-fluoro-3-hydroxy-3-methylbutyl) nicotinamide]: at IRAK4, the IC50 came to 0.001 µM. The apparent permeability coefficient (Papp) at 2 h, 3 µM in the series “Caco Permeability Assay” was 12.6 ×10⁻⁶ cm/s. For the same molecule, a half-maximal effect in series [1] (Homo sapiens) (EC50) was put at 0.34 µM.

As to `CC(F)(F)Cn1cc(Nc2cc(-c3cnn4cc(C#N)cnc34)ncc2C(=O)NC[C@@H](F)C(C)(C)O)cn1` [Example 238, (R)-6-(6-cyanopyrazolo[1,5-a]pyrimidin-3-yl)-4-((1-(2,2-difluoropropyl)-1H-pyrazol-4-yl)amino)-N-(2-fluoro-3-hydroxy-3-methylbutyl)nicotinamide], at IRAK4, the IC50 came out at 0.002 µM. Also, the Papp at 2 h, 3 µM in “Caco Permeability Assay” was found to be 2.1 ×10⁻⁶ cm/s. In addition, in series [1] (Homo sapiens), the EC50 is 0.22 µM.

Take `CCn1cc(Nc2cc(-c3cnn4cc(Cl)cnc34)ncc2C(=O)NC[C@@H](F)C(C)(C)O)cn1` [Example 232, (R)-6-(6-chloropyrazolo[1,5-a]pyrimidin-3-yl)-4-((1-ethyl-1H-pyrazol-4-yl)amino)-N-(2-fluoro-3-hydroxy-3-methylbutyl)nicotinamide]: at IRAK4, the IC50 stood at 0.001 µM. In the series “Caco Permeability Assay”, the Papp at 2 h, 3 µM is 3.7 ×10⁻⁶ cm/s. The EC50 in series [1] (Homo sapiens) came out at 0.14 µM.

`CC(C)(O)[C@H](F)CNC(=O)c1cnc(-c2cnn3cc(Cl)cnc23)cc1Nc1ccc(C(N)=O)cc1` [Example 33, (R)-4-((4-carbamoylphenyl)amino)-6-(6-chloropyrazolo[1,5-a]pyrimidin-3-yl)-N-(2-fluoro-3-hydroxy-3-methylbutyl) nicotinamide]: the IC50 on IRAK4 was 0.002 µM. In addition, the Papp at 2 h, 3 µM in the series “Caco Permeability Assay” is under 1.5 ×10⁻⁶ cm/s. The same molecule came in with an EC50 in series [1] (Homo sapiens) of 0.35 µM.

Take `CC(C)(O)[C@H](F)CNC(=O)c1cnc(-c2cnc3cc(C#N)cnn23)cc1Nc1cnn(C2CC(F)(F)C2)c1` [Example 259, (R)-6-(7-cyanoimidazo[1,2-b]pyridazin-3-yl)-4-((1-(3,3-difluorocyclobutyl)-1H-pyrazol-4-yl)amino)-N-(2-fluoro-3-hydroxy-3-methylbutyl)nicotinamide]: the IC50 on IRAK4 is 0.002 µM. In the series “Caco Permeability Assay”, the Papp at 2 h, 3 µM is under 1.5 ×10⁻⁶ cm/s. The same molecule registered an EC50 in series [1] (Homo sapiens) of 0.13 µM.

As for `CC(C)(O)[C@H](F)CNC(=O)c1cnc(-c2cnc3cc(C#N)cnn23)cc1NC1CC(F)(F)C1` [Example 195, (R)-6-(7-cyanoimidazo[1,2-b]pyridazin-3-yl)-4-((3,3-difluorocyclobutyl)amino)-N-(2-fluoro-3-hydroxy-3-methylbutyl)nicotinamide], the IC50 at IRAK4 worked out at 0.004 µM. The Papp at 2 h, 3 µM in the series “Caco Permeability Assay” was found to be 3.7 ×10⁻⁶ cm/s. This molecule also displayed an EC50 in series [1] (Homo sapiens) of 0.7 µM.

For `CC(O)CCNc1cc(-c2cnn3cc(Cl)cnc23)ncc1C(=O)NC[C@@H](F)C(C)(C)O` (stereo partly drawn) [Example 82, 6-(6-chloropyrazolo[1,5-a]pyrimidin-3-yl)-N—((R)-2-fluoro-3-hydroxy-3-methylbutyl)-4-((3-hydroxybutyl)amino)nicotinamide], at IRAK4, the half-maximal inhibitory concentration (IC50) was 0.006 µM. In “Caco Permeability Assay”, this molecule gave a Papp at 2 h, 3 µM of under 1.5 ×10⁻⁶ cm/s. In series [1] (Homo sapiens), this molecule returned an EC50 of 0.58 µM.

Consider `CC(C)(O)[C@H](F)CNC(=O)c1cnc(-c2cnn3cc(C#N)cnc23)cc1Nc1cnn(CC2CC2)c1` [Example 249, (R)-6-(6-cyanopyrazolo[1,5-a]pyrimidin-3-yl)-4-((1-(cyclopropylmethyl)-1H-pyrazol-4-yl)amino)-N-(2-fluoro-3-hydroxy-3-methylbutyl)nicotinamide], for which the IC50 on IRAK4 came to 0.002 µM. The Papp at 2 h, 3 µM in the series “Caco Permeability Assay” was under 1.5 ×10⁻⁶ cm/s. Moreover, it took 0.4 µM to reach a half-maximal effect in series [1] (Homo sapiens) (EC50).

As for `CC(C)(O)[C@H](F)CNC(=O)c1cnc(-c2cnc3cc(C#N)cnn23)cc1Nc1cnn(CCCF)c1` [Example 281, (R)-6-(7-cyanoimidazo[1,2-b]pyridazin-3-yl)-N-(2-fluoro-3-hydroxy-3-methylbutyl)-4-((1-(3-fluoropropyl)-1H-pyrazol-4-yl)amino)nicotinamide], the half-inhibitory concentration (IC50) at IRAK4 amounted to 0.002 µM. This molecule also came in with a Papp at 2 h, 3 µM in the series “Caco Permeability Assay” of under 1.5 ×10⁻⁶ cm/s. In series [1] (Homo sapiens), the half-maximal effective concentration (EC50) is 0.29 µM.

For `CC(C)(O)[C@H](F)CNC(=O)c1cnc(-c2cnn3cc(Cl)cnc23)cc1Nc1cnn(C2COC2)c1` [Example 48, (R)-6-(6-chloropyrazolo[1,5-a]pyrimidin-3-yl)-N-(2-fluoro-3-hydroxy-3-methylbutyl)-4-((1-(oxetan-3-yl)-1H-pyrazol-4-yl)amino)nicotinamide], the IC50 at IRAK4 is 0.001 µM. Also, the Papp at 2 h, 3 µM in the series “Caco Permeability Assay” was 2.6 ×10⁻⁶ cm/s. The same molecule returned an EC50 in series [1] (Homo sapiens) of 0.3 µM.

As to `CC(C)(F)Cn1ccc(Nc2cc(-c3cnn4cc(Cl)cnc34)ncc2C(=O)NC[C@@H](F)C(C)(C)O)n1` [Example 229, (R)-6-(6-chloropyrazolo[1,5-a]pyrimidin-3-yl)-4-((1-(2-fluoro-2-methylpropyl)-1H-pyrazol-3-yl)amino)-N-(2-fluoro-3-hydroxy-3-methylbutyl)nicotinamide], on IRAK4, the IC50 was determined as 0.009 µM. For the same molecule, in “Caco Permeability Assay”, the Papp at 2 h, 3 µM was determined as 11.3 ×10⁻⁶ cm/s. The EC50 in series [1] (Homo sapiens) turned out to be 0.58 µM.
